# Columns and labels:
# Assay type in all cases: functional
# SNB-19 = assay: Growth inhibition of human SNB19 cells assessed as cell growth at 0.3 uM incubated for 48 hrs by sulforhodamine B assay relative to control; settings: SNB-19, 48 h, read-out: Activity
# HOP-92 [1] = assay: Growth inhibition of human HOP92 cells assessed as cell growth at 0.03 uM incubated for 48 hrs by sulforhodamine B assay relative to control; settings: HOP-92, 48 h, read-out: Activity
# UACC-62 [2] = assay: Growth inhibition of human UACC62 cells assessed as cell growth at 0.03 uM incubated for 48 hrs by sulforhodamine B assay relative to control; settings: UACC-62, 48 h, read-out: Activity
# HCC 2998 [3] = assay: Growth inhibition of human HCC2998 cells assessed as cell growth at 0.3 uM incubated for 48 hrs by sulforhodamine B assay relative to control; settings: HCC 2998, 48 h, read-out: Activity
# CAKI-1 = assay: Growth inhibition of human Caki1 cells assessed as cell growth at 0.3 uM incubated for 48 hrs by sulforhodamine B assay relative to control; settings: CAKI-1, 48 h, read-out: Activity
# UACC-257 [4] = assay: Growth inhibition of human UACC257 cells assessed as cell growth at 30 uM incubated for 48 hrs by sulforhodamine B assay relative to control; settings: UACC-257, 48 h, read-out: Activity
# HCC 2998 [5] = assay: Growth inhibition of human HCC2998 cells assessed as cell growth at 3 uM incubated for 48 hrs by sulforhodamine B assay relative to control; settings: HCC 2998, 48 h, read-out: Activity
# BT-549 = assay: Growth inhibition of human BT549 cells assessed as cell growth at 3 uM incubated for 48 hrs by sulforhodamine B assay relative to control; settings: BT-549, 48 h, read-out: Activity
# HCC 2998 [6] = assay: Growth inhibition of human HCC2998 cells assessed as cell growth at 0.03 uM incubated for 48 hrs by sulforhodamine B assay relative to control; settings: HCC 2998, 48 h, read-out: Activity
# SK-MEL-5 = assay: Growth inhibition of human SK-MEL-5 cells assessed as cell growth at 0.003 uM incubated for 48 hrs by sulforhodamine B assay relative to control; settings: SK-MEL-5, 48 h, read-out: Activity
# HT-29 [7] = assay: Growth inhibition of human HT-29 cells assessed as cell growth at 0.3 uM incubated for 48 hrs by sulforhodamine B assay relative to control; settings: HT-29, 48 h, read-out: Activity
# HL-60(TB) = assay: Growth inhibition of human HL-60(TB) cells assessed as cell growth at 0.003 uM incubated for 48 hrs by sulforhodamine B assay relative to control; settings: HL-60, 48 h, read-out: Activity
# A549 = assay: Growth inhibition of human A549/ATCC cells assessed as cell growth at 30 uM incubated for 48 hrs by sulforhodamine B assay relative to control; settings: A549, 48 h, read-out: Activity
# HOP-92 [8] = assay: Growth inhibition of human HOP92 cells assessed as cell growth at 0.3 uM incubated for 48 hrs by sulforhodamine B assay relative to control; settings: HOP-92, 48 h, read-out: Activity
# KM12 = assay: Growth inhibition of human KM12 cells assessed as cell growth at 0.003 uM incubated for 48 hrs by sulforhodamine B assay relative to control; settings: KM12, 48 h, read-out: Activity
# M14 [9] = assay: Growth inhibition of human M14 cells assessed as cell growth at 0.003 uM incubated for 48 hrs by sulforhodamine B assay relative to control; settings: M14, 48 h, read-out: Activity
# Malme-3M = assay: Growth inhibition of human MALME-3M cells assessed as cell growth at 0.003 uM incubated for 48 hrs by sulforhodamine B assay relative to control; settings: read-out: Activity
# SF-268 [10] = assay: Growth inhibition of human SF268 cells assessed as cell growth at 30 uM incubated for 48 hrs by sulforhodamine B assay relative to control; settings: SF-268, 48 h, read-out: Activity
# OVCAR-5 = assay: Growth inhibition of human OVCAR5 cells assessed as cell growth at 1 uM incubated for 48 hrs by sulforhodamine B assay relative to control; settings: OVCAR-5, 48 h, read-out: Activity
# M14 [11] = assay: Growth inhibition of human M14 cells assessed as cell growth at 10 uM incubated for 48 hrs by sulforhodamine B assay relative to control; settings: M14, 48 h, read-out: Activity
# UACC-62 [12] = assay: Growth inhibition of human UACC62 cells assessed as cell growth at 100 uM incubated for 48 hrs by sulforhodamine B assay relative to control; settings: UACC-62, 48 h, read-out: Activity
# ACHN = assay: Growth inhibition of human ACHN cells assessed as cell growth at 0.1 uM incubated for 48 hrs by sulforhodamine B assay relative to control; settings: read-out: Activity
# NCI-H522 [13] = assay: Growth inhibition of human NCI-H522 cells assessed as cell growth at 10 uM incubated for 48 hrs by sulforhodamine B assay relative to control; settings: NCI-H522, 48 h, read-out: Activity
# OVCAR-8 = assay: Growth inhibition of human OVCAR8 cells assessed as cell growth at 0.1 uM incubated for 48 hrs by sulforhodamine B assay relative to control; settings: OVCAR-8, 48 h, read-out: Activity
# MDA-MB-231 = assay: Growth inhibition of human MDA-MB-231 cells assessed as cell growth at 100 uM incubated for 48 hrs by sulforhodamine B assay relative to control; settings: MDA-MB-231, 48 h, read-out: Activity
# SN12C = assay: Growth inhibition of human SN12C cells assessed as cell growth at 100 uM incubated for 48 hrs by sulforhodamine B assay relative to control; settings: read-out: Activity
# SF-295 = assay: Growth inhibition of human SF295 cells assessed as cell growth at 0.1 uM incubated for 48 hrs by sulforhodamine B assay relative to control; settings: SF-295, 48 h, read-out: Activity
# MDA-MB-435 = assay: Growth inhibition of human MDA-MB-435 cells assessed as cell growth at 100 uM incubated for 48 hrs by sulforhodamine B assay relative to control; settings: MDA-MB-435, 48 h, read-out: Activity
# Hs-578T = assay: Growth inhibition of human Hs 578T cells assessed as cell growth at 100 uM incubated for 48 hrs by sulforhodamine B assay relative to control; settings: read-out: Activity
# SF-268 [14] = assay: Growth inhibition of human SF268 cells assessed as cell growth at 10 uM incubated for 48 hrs by sulforhodamine B assay relative to control; settings: SF-268, 48 h, read-out: Activity
# NCI-H522 [15] = assay: Growth inhibition of human NCI-H522 cells assessed as cell growth at 0.01 uM incubated for 48 hrs by sulforhodamine B assay relative to control; settings: NCI-H522, 48 h, read-out: Activity
# UACC-257 [16] = assay: Growth inhibition of human UACC257 cells assessed as cell growth at 0.01 uM incubated for 48 hrs by sulforhodamine B assay relative to control; settings: UACC-257, 48 h, read-out: Activity
# HT-29 [17] = assay: Growth inhibition of human HT-29 cells assessed as cell growth at 10 uM incubated for 48 hrs by sulforhodamine B assay relative to control; settings: HT-29, 48 h, read-out: Activity
# 786-0 = assay: Growth inhibition of human 786-0 cells assessed as cell growth at 0.01 uM incubated for 48 hrs by sulforhodamine B assay relative to control; settings: 786-0, 48 h, read-out: Activity
# NCI-H23 = assay: Growth inhibition of human NCI-H23 cells assessed as cell growth at 1 uM incubated for 48 hrs by sulforhodamine B assay relative to control; settings: NCI-H23, 48 h, read-out: Activity
structure (smiles),measurement,setting,value
COc1cc2cc(Oc3ccc(NC(=O)Nc4ccc(Cl)c(C(F)(F)F)c4)cc3)c(C)nc2cc1OC,growth at 0.3 µM,SNB-19,96%
same,growth at 0.03 µM,HOP-92 [1],89%
same,growth at 0.03 µM,UACC-62 [2],92%
same,growth at 0.3 µM,HCC 2998 [3],109%
same,growth at 0.3 µM,CAKI-1,87%
same,growth at 30 µM,UACC-257 [4],-60%
same,growth at 3 µM,HCC 2998 [5],29%
same,growth at 3 µM,BT-549,12%
same,growth at 0.03 µM,HCC 2998 [6],106%
same,growth at 0.003 µM,SK-MEL-5,100%
same,growth at 0.3 µM,HT-29 [7],105%
same,growth at 0.003 µM,HL-60(TB),96%
same,growth at 30 µM,A549,-80%
same,growth at 0.3 µM,HOP-92 [8],84%
same,growth at 0.003 µM,KM12,100%
same,growth at 0.003 µM,M14 [9],97%
same,growth at 0.003 µM,Malme-3M,98%
same,growth at 30 µM,SF-268 [10],-64%
COc1cc2cc(Oc3ccc(NC(=O)Nc4cc(C(F)(F)F)cc(C(F)(F)F)c4)cc3)c(C)nc2cc1OC,growth at 1 µM,OVCAR-5,93%
same,growth at 10 µM,M14 [11],-59%
same,growth at 100 µM,UACC-62 [12],-79%
same,growth at 0.1 µM,ACHN,98%
same,growth at 10 µM,NCI-H522 [13],-71%
same,growth at 0.1 µM,OVCAR-8,110%
same,growth at 100 µM,MDA-MB-231,-83%
same,growth at 100 µM,SN12C,-74%
same,growth at 0.1 µM,SF-295,92%
same,growth at 100 µM,MDA-MB-435,-63%
same,growth at 100 µM,Hs-578T,-9%
same,growth at 10 µM,SF-268 [14],-61%
same,growth at 0.01 µM,NCI-H522 [15],92%
same,growth at 0.01 µM,UACC-257 [16],104%
same,growth at 10 µM,HT-29 [17],-64%
same,growth at 0.01 µM,786-0,89%
same,growth at 1 µM,NCI-H23,39%
COc1cc2cc(Oc3ccc(NC(=O)Nc4ccc(Cl)c(Cl)c4)cc3)c(C)nc2cc1OC,growth at 1 µM,OVCAR-5,116%
same,growth at 10 µM,M14 [11],2%
same,growth at 100 µM,UACC-62 [12],-63%
same,growth at 0.1 µM,ACHN,105%
same,growth at 10 µM,NCI-H522 [13],-5%
same,growth at 0.1 µM,OVCAR-8,100%
same,growth at 100 µM,MDA-MB-231,-100%
same,growth at 100 µM,SN12C,-41%
same,growth at 0.1 µM,SF-295,87%
same,growth at 100 µM,MDA-MB-435,-45%
same,growth at 100 µM,Hs-578T,-45%
same,growth at 10 µM,SF-268 [14],44%
same,growth at 0.01 µM,NCI-H522 [15],99%
same,growth at 0.01 µM,UACC-257 [16],97%
same,growth at 10 µM,HT-29 [17],-49%
same,growth at 0.01 µM,786-0,83%
same,growth at 1 µM,NCI-H23,89%
Cc1nc2cc(O)c(O)cc2cc1Oc1ccc(NC(=O)Nc2ccc(Cl)c(Cl)c2)cc1,growth at 0.3 µM,SNB-19,117%
same,growth at 0.03 µM,HOP-92 [1],80%
same,growth at 0.03 µM,UACC-62 [2],97%
same,growth at 0.3 µM,HCC 2998 [3],97%
same,growth at 0.3 µM,CAKI-1,95%
same,growth at 30 µM,UACC-257 [4],-20%
same,growth at 3 µM,HCC 2998 [5],96%
same,growth at 3 µM,BT-549,78%
same,growth at 0.03 µM,HCC 2998 [6],99%
same,growth at 0.003 µM,SK-MEL-5,98%
same,growth at 0.3 µM,HT-29 [7],103%
same,growth at 0.003 µM,HL-60(TB),102%
same,growth at 30 µM,A549,-10%
same,growth at 0.3 µM,HOP-92 [8],77%
same,growth at 0.003 µM,KM12,103%
same,growth at 0.003 µM,M14 [9],96%
same,growth at 0.003 µM,Malme-3M,99%
same,growth at 30 µM,SF-268 [10],1%
